In PubChem BioAssay (NCI):
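Cells were grown in 96-well plates and exposed to each compound for 48 hours at five concentrations; endpoints were interpolated linearly between bracketing concentrations, or set to the highest concentration if not reached. The concentration for full growth arrest is given as TGI.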

Assays:
Assay in all cases: NCI-60 cell line screen, 48 h
NCI-H226 lung = tested on: NCI-H226 lung
OVCAR-4 ovarian = tested on: OVCAR-4 ovarian
SF-539 CNS = tested on: SF-539 CNS
DU-145 prostate = tested on: DU-145 prostate
KM12 colon = tested on: KM12 colon
MDA-MB-231 breast = tested on: MDA-MB-231 breast
MDA-N = tested on: MDA-N
HCC-2998 colon = tested on: HCC-2998 colon
K-562 leukemia = tested on: K-562 leukemia
HCT-116 colon = tested on: HCT-116 colon
UACC-62 melanoma = tested on: UACC-62 melanoma
HT29 colon = tested on: HT29 colon
HOP-92 NSCLC = tested on: HOP-92 NSCLC
MCF7 breast = tested on: MCF7 breast
NCI/ADR-RES ovarian = tested on: NCI/ADR-RES ovarian
SN12C renal = tested on: SN12C renal
T-47D breast = tested on: T-47D breast
RXF 393 renal = tested on: RXF 393 renal
UACC-257 melanoma = tested on: UACC-257 melanoma
A549 NSCLC = tested on: A549 NSCLC
PC-3 prostate = tested on: PC-3 prostate
HOP-62 NSCLC = tested on: HOP-62 NSCLC
SK-MEL-2 melanoma = tested on: SK-MEL-2 melanoma
NCI-H23 lung = tested on: NCI-H23 lung
U251 CNS = tested on: U251 CNS
M14 melanoma = tested on: M14 melanoma
MOLT-4 leukemia = tested on: MOLT-4 leukemia
SF-295 CNS = tested on: SF-295 CNS
LOX IMVI melanoma = tested on: LOX IMVI melanoma
786-0 renal = tested on: 786-0 renal
SR leukemia = tested on: SR leukemia
RPMI-8226 leukemia = tested on: RPMI-8226 leukemia
SNB-19 CNS = tested on: SNB-19 CNS
OVCAR-8 ovarian = tested on: OVCAR-8 ovarian
IGROV1 ovarian = tested on: IGROV1 ovarian
BT-549 breast = tested on: BT-549 breast
SW-620 colon = tested on: SW-620 colon
HCT-15 colon = tested on: HCT-15 colon
CAKI-1 renal = tested on: CAKI-1 renal
SK-MEL-5 melanoma = tested on: SK-MEL-5 melanoma
UO-31 renal = tested on: UO-31 renal
MDA-MB-435 = tested on: MDA-MB-435
EKVX NSCLC = tested on: EKVX NSCLC
CCRF-CEM leukemia = tested on: CCRF-CEM leukemia
COLO 205 colon = tested on: COLO 205 colon
OVCAR-5 ovarian = tested on: OVCAR-5 ovarian
OVCAR-3 ovarian = tested on: OVCAR-3 ovarian
A498 renal = tested on: A498 renal
NCI-H460 lung = tested on: NCI-H460 lung
SNB-75 CNS = tested on: SNB-75 CNS
SK-MEL-28 melanoma = tested on: SK-MEL-28 melanoma
HL-60(TB) leukemia = tested on: HL-60(TB) leukemia
ACHN renal = tested on: ACHN renal
NCI-H522 lung = tested on: NCI-H522 lung
HS 578T breast = tested on: HS 578T breast
SF-268 CNS = tested on: SF-268 CNS
TK-10 renal = tested on: TK-10 renal
SK-OV-3 ovarian = tested on: SK-OV-3 ovarian

COC(=O)/C=C1\C(=O)C=C2[C@@H]3C[C@H]4C[C@H](CC[C@@]4(C)N21)C3(C)NC(C)=O (stereo partly specified)
TGI (NCI-H226 lung): 55.1 µM
TGI (OVCAR-4 ovarian): 44 µM
TGI (SF-539 CNS): 9.54 µM
TGI (DU-145 prostate): 32.8 µM
TGI (KM12 colon): 33.2 µM
TGI (MDA-MB-231 breast): 56.2 µM
TGI (MDA-N): 33.4 µM
TGI (HCC-2998 colon): > 64.9 µM
TGI (K-562 leukemia): > 100 µM
TGI (HCT-116 colon): 24 µM
TGI (UACC-62 melanoma): 35 µM
TGI (HT29 colon): 28.2 µM
TGI (HOP-92 NSCLC): 47.5 µM
TGI (MCF7 breast): 68.7 µM
TGI (NCI/ADR-RES ovarian): > 77 µM
TGI (SN12C renal): 26.6 µM
TGI (T-47D breast): > 27.8 µM
TGI (RXF 393 renal): > 39.9 µM
TGI (UACC-257 melanoma): 52.5 µM
TGI (A549 NSCLC): > 57.4 µM
TGI (PC-3 prostate): 31.4 µM
TGI (HOP-62 NSCLC): 60.7 µM
TGI (SK-MEL-2 melanoma): 38.9 µM
TGI (NCI-H23 lung): > 60.6 µM
TGI (U251 CNS): > 56.9 µM
TGI (M14 melanoma): 26.4 µM
TGI (MOLT-4 leukemia): 34.3 µM
TGI (SF-295 CNS): 44.1 µM
TGI (LOX IMVI melanoma): > 100 µM
TGI (786-0 renal): 14.3 µM
TGI (SR leukemia): 99.7 µM
TGI (RPMI-8226 leukemia): > 100 µM
TGI (SNB-19 CNS): > 56.7 µM
TGI (OVCAR-8 ovarian): 51.2 µM
TGI (IGROV1 ovarian): 40.7 µM
TGI (BT-549 breast): 24.8 µM
TGI (SW-620 colon): 24.7 µM
TGI (HCT-15 colon): > 52.7 µM
TGI (CAKI-1 renal): 26.3 µM
TGI (SK-MEL-5 melanoma): > 60 µM
TGI (UO-31 renal): > 52.4 µM
TGI (MDA-MB-435): 28.5 µM
TGI (EKVX NSCLC): 30.6 µM
TGI (CCRF-CEM leukemia): 34.7 µM
TGI (COLO 205 colon): > 36.8 µM
TGI (OVCAR-5 ovarian): 35.7 µM
TGI (OVCAR-3 ovarian): 29 µM
TGI (A498 renal): 38.9 µM
TGI (NCI-H460 lung): > 100 µM
TGI (SNB-75 CNS): 27.4 µM
TGI (SK-MEL-28 melanoma): 11.2 µM
TGI (HL-60(TB) leukemia): > 100 µM
TGI (ACHN renal): 46 µM
TGI (NCI-H522 lung): 3.6 µM
TGI (HS 578T breast): 39 µM
TGI (SF-268 CNS): 22.9 µM
TGI (TK-10 renal): 33.9 µM
TGI (SK-OV-3 ovarian): 55.7 µM

Cc1cn(CCOCCOC(=O)NC(CCCNC(N)=O)C(=O)O)c(=O)[nH]c1=O (stereo unspecified)
TGI (NCI-H226 lung): > 100 µM
TGI (OVCAR-4 ovarian): > 100 µM
TGI (SF-539 CNS): > 100 µM
TGI (DU-145 prostate): > 100 µM
TGI (KM12 colon): > 100 µM
TGI (MDA-MB-231 breast): > 100 µM
TGI (MDA-N): > 100 µM
TGI (HCC-2998 colon): > 100 µM
TGI (K-562 leukemia): > 100 µM
TGI (HCT-116 colon): > 100 µM
TGI (UACC-62 melanoma): > 100 µM
TGI (HT29 colon): > 100 µM
TGI (HOP-92 NSCLC): > 100 µM
TGI (MCF7 breast): > 100 µM
TGI (NCI/ADR-RES ovarian): > 100 µM
TGI (SN12C renal): > 100 µM
TGI (T-47D breast): > 100 µM
TGI (RXF 393 renal): > 100 µM
TGI (UACC-257 melanoma): > 100 µM
TGI (A549 NSCLC): > 100 µM
TGI (PC-3 prostate): > 100 µM
TGI (HOP-62 NSCLC): > 100 µM
TGI (SK-MEL-2 melanoma): > 100 µM
TGI (NCI-H23 lung): > 100 µM
TGI (U251 CNS): > 100 µM
TGI (M14 melanoma): > 100 µM
TGI (MOLT-4 leukemia): > 100 µM
TGI (SF-295 CNS): > 100 µM
TGI (LOX IMVI melanoma): > 100 µM
TGI (786-0 renal): > 100 µM
TGI (SR leukemia): > 100 µM
TGI (RPMI-8226 leukemia): > 100 µM
TGI (SNB-19 CNS): > 100 µM
TGI (OVCAR-8 ovarian): > 100 µM
TGI (IGROV1 ovarian): > 100 µM
TGI (BT-549 breast): > 100 µM
TGI (SW-620 colon): > 100 µM
TGI (HCT-15 colon): > 100 µM
TGI (CAKI-1 renal): > 100 µM
TGI (UO-31 renal): > 100 µM
TGI (MDA-MB-435): > 100 µM
TGI (EKVX NSCLC): > 100 µM
TGI (CCRF-CEM leukemia): > 100 µM
TGI (COLO 205 colon): > 100 µM
TGI (OVCAR-5 ovarian): > 100 µM
TGI (OVCAR-3 ovarian): > 100 µM
TGI (NCI-H460 lung): > 100 µM
TGI (SNB-75 CNS): > 100 µM
TGI (SK-MEL-28 melanoma): > 100 µM
TGI (HL-60(TB) leukemia): > 100 µM
TGI (ACHN renal): > 100 µM
TGI (HS 578T breast): > 100 µM
TGI (SF-268 CNS): > 100 µM
TGI (TK-10 renal): > 100 µM
TGI (SK-OV-3 ovarian): > 100 µM

Nc1ccc2c(c1)NC(=O)[C@@H]1CCCN1C2=O
TGI (NCI-H226 lung): > 100 µM
TGI (OVCAR-4 ovarian): > 100 µM
TGI (SF-539 CNS): > 100 µM
TGI (DU-145 prostate): > 100 µM
TGI (KM12 colon): > 100 µM
TGI (MDA-MB-231 breast): > 100 µM
TGI (MDA-N): > 100 µM
TGI (HCC-2998 colon): > 100 µM
TGI (K-562 leukemia): > 100 µM
TGI (HCT-116 colon): > 100 µM
TGI (UACC-62 melanoma): > 100 µM
TGI (HT29 colon): > 100 µM
TGI (HOP-92 NSCLC): > 100 µM
TGI (MCF7 breast): > 100 µM
TGI (NCI/ADR-RES ovarian): > 100 µM
TGI (SN12C renal): > 100 µM
TGI (T-47D breast): > 100 µM
TGI (RXF 393 renal): > 100 µM
TGI (UACC-257 melanoma): > 100 µM
TGI (A549 NSCLC): > 100 µM
TGI (PC-3 prostate): > 100 µM
TGI (HOP-62 NSCLC): > 100 µM
TGI (SK-MEL-2 melanoma): > 100 µM
TGI (NCI-H23 lung): > 100 µM
TGI (U251 CNS): > 100 µM
TGI (M14 melanoma): > 100 µM
TGI (MOLT-4 leukemia): > 100 µM
TGI (SF-295 CNS): > 100 µM
TGI (LOX IMVI melanoma): > 100 µM
TGI (786-0 renal): > 100 µM
TGI (SR leukemia): > 100 µM
TGI (RPMI-8226 leukemia): > 100 µM
TGI (SNB-19 CNS): > 100 µM
TGI (OVCAR-8 ovarian): > 100 µM
TGI (IGROV1 ovarian): > 100 µM
TGI (BT-549 breast): > 100 µM
TGI (SW-620 colon): > 100 µM
TGI (HCT-15 colon): > 100 µM
TGI (CAKI-1 renal): > 100 µM
TGI (SK-MEL-5 melanoma): > 100 µM
TGI (UO-31 renal): > 100 µM
TGI (MDA-MB-435): > 100 µM
TGI (EKVX NSCLC): > 100 µM
TGI (CCRF-CEM leukemia): > 100 µM
TGI (COLO 205 colon): > 100 µM
TGI (OVCAR-5 ovarian): > 100 µM
TGI (OVCAR-3 ovarian): > 100 µM
TGI (A498 renal): > 100 µM
TGI (NCI-H460 lung): > 100 µM
TGI (SNB-75 CNS): > 100 µM
TGI (SK-MEL-28 melanoma): > 100 µM
TGI (HL-60(TB) leukemia): > 100 µM
TGI (ACHN renal): > 100 µM
TGI (NCI-H522 lung): > 100 µM
TGI (HS 578T breast): > 100 µM
TGI (SF-268 CNS): > 100 µM
TGI (TK-10 renal): > 100 µM
TGI (SK-OV-3 ovarian): > 100 µM
